One series in a line: Acute toxicity in mice. Conditions: mouse, in vivo, ip; fasted albino mice, intraperitoneal; read-out: Intraperitoneally LD50. The series is classed as in vivo. Here is the method:
in fasted albino mice (Flanders) the LD50 for AMR-69 and aminopyrine was determined by standard procedures with the following results: […]

For series [1], the system named is experimentally-induced fever in albino rabbits. Kind of series: Anti-pyretic activity, experimentally-induced fever in rabbits. Type of series: in vivo. Conditions: for anti-pyretic activity: induced fever. Here is the method:
anti-pyretic activity testing is based upon the ability of the drug to suppress the experimentally-induced fever in albino rabbits (F. M. Berger, et al. J. Pharmacology and Experimental Therapeutics, Vol. 127, No. 1, 1959 based upon the original presentations of G. Brownlee Quart. J. Pharm; Vol. 10, Pg. 609, 1937 and Quart. J. Pharm., Vol. 12, Pg. 45, 1939). The drugs under test are administered intraperitoneally and the response is compared to that of saline controls. The average change in temperature over a period of three hours following the administration of aminopyrine (100 mg./kg. i.p.), AMR-69 (100 mg./kg. i.p.) and the saline (isotonic) controls were as follows:
The effective anti-pyretic activity of AMR-69 in rabbits has been noted previously.

Series [2] relates to edema (swelling), experimental inflammation in the hind limb of rats. Kind of series: Anti-inflammatory activity, reduction of edema of experimentally inflamed hind limb. The series is classed as in vivo, albino rats. The settings on record: for ED50: Rattus norvegicus, read-out: oral median effective dose (ED50), anti-inflammatory; for anti-inflammatory effect: oral dosage of 600 mg./kg. Here is the method:
anti-inflammatory activity was assayed by the method described by Margolin (ibid.) utilizing albino rats. The anti-inflammatory bio-assay basis is the ability to reduce the edema (swelling) when an experimental inflammation is induced in the hind limb of the rats.

In series [3] the test system is rats with the hind limb inflammed. The experiment in a line: Analgesic activity, rats with inflamed hind limb (absence of squeal on flexion of inflamed ankle joint). The series is classed as in vivo, rat. Conditions: for ED50: Rattus norvegicus, read-out: oral ED50 (median analgesic dose); for ED50 / side effects at the median analgesic dose: oral; for side effects at the median analgesic dose: at ED50 dosage (AMR-94 160 mg./kg.; AMR-93 325 mg./kg.). Here is the method: the end-point for analgesic testing in rats with the hind limb inflammed is based on the absence of a squeal in response to flexion of the inflammed ankle joint (Method described by S. Margolin, Proceedings of an International Symposium on Non-Steroidal Anti-Inflammatory Drugs, Excerpta Medica International Congress, Series No. 82, 1964).
With AMR-93, the median effective dose was 325 ± 45 mg./kg.

Series [4] concerns mucous membranes of the nasopharynx and lungs. The experiment in a line: Protection of mucous membranes of the nasopharynx and lungs, comparison with related pyridones. The series is classed as in vivo. The settings on record: for protection of mucous membranes of the nasopharynx and lungs: comparison with related pyridones; for side effects / deleterious effects on the respiratory system: mucous membrane protection tests.

Series [5] in a line: General comparison of side effects and therapeutic activity in the several tests. The settings on record: in vivo.
Series [6] concerns experimentally-induced fever in albino rabbits. Kind of series: Anti-pyretic activity, experimentally-induced fever in rabbits. Type of series: in vivo. Conditions: animals without experimentally induced fever as well.
A further series deals with serum uric acid. The experiment in a line: Reduction in serum uric acid levels, rats. The settings on record: albino male and female rats, similar tests. The series is classed as in vivo, albino male and female rats. Here is the method:
normal adult albino male and female rats were given repeated graded doses of AMR-69 and the effect upon serum uric acid levels was determined. There were 10 males and 10 females in each group. The control group received the placebo and the drug was administered orally by admixture to the food. The serum uric acid determination was one of a series performed utilizing the Autotechnicon technique (Lofland et al., 1965 Technicon Symposium) using the Standard SMA-12 procedure (based upon procedure of Bittner et al., AM. J. Clin. Path. 40:423, 1963).
The lowering in serum uric acid levels shown by AMR-69 in tests on rats and on dogs has been noted.

By LD50 is commonly meant the dose at which mortality reaches 50%. Broadly, the ED50 is the dose that gives a 50% effect, or the effect in half of the subjects.

Turning to `Cc1c(N(C)C)c(=O)n(-c2ccccc2)n1C` [Aminopyrine, aminopyrine, reference compound], the LD50 in the series “Acute toxicity in mice” was found to be 175 ± 9 mg/kg. Besides, the “average change in temperature over a period of three hours” value in series [1] (100 mg./kg. i.p., fevered albino rabbits, saline controls +0.9 ±0.17°C) is -0.6 ±0.16 °C. In addition, the “reduction in fever as compared to the saline control” value in series [1] (100 mg./kg. i.p., aminopyrine t = 6.6, p < 0.01, AMR-69 t = 6.3, p < 0.01) is “highly significant”. The ED50 in series [2] (oral) was 185 ± 31 mg/kg; in series [3] it was 150 ± 26 mg/kg.
In the case of `Cc1cccn(-c2ccccc2)c1=O` [AMR-77, 3-methyl-1-phenyl-2-(1H)-pyridone], in series [4], the “protection of mucous membranes of the nasopharynx and lungs” value (from here on “protection”) is “no evidence of protective action”; the “side effects / deleterious effects on the respiratory system” value (“side effects / deleterious effects” for short) is reported as “No acute deleterious effects on the respiratory system were observed”. For the same compound, the anti-pyretic activity result in series [1] (rabbits) was “No significant anti-pyretic activity was observed”. Moreover, in series [5], the “deleterious side effects in the several tests” value (shortened to “deleterious side effects”) is “not observed” and the “therapeutic activity in the several tests” value is given as “neither was significant therapeutic activity demonstrated”. Besides, the anti-inflammatory effect result in series [2] is “No anti-inflammatory effect was observed”. For the same compound, the ED50 in series [3] amounted to 515 ± 45 mg/kg. The “analgesic activity relative to AMR-69” value in series [3] (oral route) is given as “approximately one-third to one-fourth the activity of AMR-69”.
Turning to `CCc1ccc(=O)n(-c2ccccc2)c1` [AMR-94, 5-ethyl-1-phenyl-2-(1H)-pyridone], the “effect on normal body temperature” value in series [6] is listed as “marked lowering of normal body temperature”. In series [4], the “protection” value was “did not show a protective effect”; the “side effects / deleterious effects” value was “undesirable side effects were evident”. Further, in series [1] (rabbits), the “convulsions observed, test animals” value is reported as “two of the four” and the anti-pyretic activity result was “slight reduction in induced fever which was not considered statistically significant”. Further, the “deleterious side effects” value in series [5] is given as “accompanied by deleterious side effects”. In addition, the “change in serum uric acid level” value with serum uric acid was “did not show a significant change in serum uric acid level”. Moreover, in series [2] (oral), the ED50 stood at 225 ± 52 mg/kg and the “side-effects at anti-inflammatory ED50” value is “accompanied by undesired side-effects”. Further, in series [3], the “analgesic effect at a dosage low enough to obviate Central Nervous System depression” value is given as “could not be demonstrated”; the ED50 turned out to be 160 ± 32 mg/kg; the “side effects at the median analgesic dose” value is “marked sedation, Central Nervous System depression, loss of respiratory efficiency, ataxia, and uncoordinated gait”.
For `O=c1ccccn1-c1ccccc1` [AMR-93, 1-phenyl-2-(1H)-pyridone], in series [4], the “protection” value is given as “did not show a protective effect”; the “side effects / deleterious effects” value is given as “undesirable side effects were evident”. In addition, the anti-pyretic activity entry in series [1] (rabbits) is listed as “No significant anti-pyretic activity was observed”. Besides, the “deleterious side effects” value in series [5] is on record as “accompanied by deleterious side effects”. The “change in serum uric acid level” value in the series with serum uric acid is reported as “did not show a significant change in serum uric acid level”. The anti-inflammatory effect entry in series [2] is on record as “No anti-inflammatory effect was observed”. In series [3], the 50% effective dose (ED50) came out at 325 ± 45 mg/kg; the “side effects at the median analgesic dose” value was “acute bleeding from the nose and an autopsy revealed multiple hemorrhages and edema of the lungs”.

The values above are taken from patent US3974281A, “5-Methyl-1-phenyl-2-(1H)-pyridone compositions and methods of use” (priority 1974, dated 1976).
